{
  "source": "patent US20130197043A1",
  "about": "“USE OF THE FETAL REPROGRAMMING OF A PPAR AGONIST” (SNU R&DB FOUNDATION, priority 2010, published 2013)",
  "key": {"[1]": {"system": "mice subjected to fetal reprogramming", "test": "Glucose tolerance test (GTT) of fetal-reprogrammed mice after high-fat feedstuff", "type": "in vivo", "settings": "GTT after 17 weeks high-fat feedstuff", "protocol": "The present researchers conducted the glucose tolerance test (GTT) after the mice were fed with high-fat feedstuff for 17 weeks to induce diabetes. The experiment was conducted following the method proposed by Kelly, and challenged with over-night fasting in order to confirm the role thereof in the muscle. Glucose ([…]) was administered by using intraperitoneal injection, and then the blood glucose level change was measured for 2 hours. As a result, the fasting blood glucose level was lower, the maximum blood glucose concentration was lower, and the glucose clearance time was shorter in the mice of the administration group as compared with the mice of the control group (FIG. 19). At the same time, the insulin tolerance test was conducted (FIG. 20). To sum the above results up, it may be seen that animals subjected to fetal reprogramming by PPAR δ activation enhanced endurance due to an increase in slow muscle fibers and prevented and suppressed the occurrence of obesity and diabetes due to high-fat diet."}, "[2]": {"test": "Maternal treatment: side effects, fetal body weight, growth, skeleton staining", "type": "in vivo, mice", "protocol": "The present inventors used a method of administering a PPAR δ agonist to a pregnant mother (maternal treatment) in order to investigate the role of fetal reprogramming of PPAR δ during mammalian development. For the fetal reprogramming, the PPAR δ agonist was orally administered to pregnant mice at a concentration of 10 mg/kg every day, and a specific experiment method was summarized in FIG. 1.\nFertile female mice and male mice were bred, and then pregnancy or not was checked by plug confirmation. CMDD1111 was orally administered to pregnant female mice at a concentration of 10 mg/kg once per day every day for six weeks (gestation and lactation periods). Side effects due to the administered material were not observed during the gestation period. The weight of a fetus group administered with vehicle during the gestation period was 1.33±0.11 g, and the weight of a fetus group administered with CMDD1111 was 1.37±0.09 g. The weight difference between the two groups was not shown (FIG. 3). In addition, growth inhibition or promotion due to the administered material was not observed in the comparison results of growth rate of fetus for 3 weeks (FIG. 4). There was no difference in body weight between the two groups as adults (FIG. 5). Deformity due to the administered material was not observed in the skeleton staining results using Alizaren red S and Alician blue dye (FIG. 6)."}, "[3]": {"system": "mice subjected to fetal reprogramming", "test": "Respiratory exchange ratio (RER) measurement using Oximax", "type": "in vivo", "protocol": "RER is a ratio of the amount of CO2 exhaled to O2 inhaled in one breath. The RER is 1.0 when carbohydrate is mainly used for energy production, while the RER is 0.7 when fat is used. […] The RER experiment using Oximax (Columbus) was conducted in order to evaluate whether or not this increase in slow muscle fiber generation actually influenced mouse energy metabolism. […] Since the RER has a periodic value depending on the time, the RER difference between the two groups was more clearly compared by using AUL, in order to check the RER difference between the two groups. The average AUL value of the control group was 107.4±1.4. Whereas, the average AUL value of the mouse group subjected to fetal reprogramming was 102.2±2.8, which was lower than that of the mouse control group (FIG. 17).\nThe present inventors checked a difference in lipid oxidation capacity between the two groups by using the following equations.\nCarbohydrate oxidation=(4.51·RER−3.18)·VO2\nLipid oxidation=1.67·(1−RER)·VO2\nAs the calculation result, it may be seen that the mouse group to which PPAR δ agonist (CMDD1111) was administered during the fetal programming period used more lipid by average 44% (6.6 mg/kgmin vs. 9.5 mg/kgmin) but less carbohydrate by 20% (48 mg/kgmin vs. 38 mg/kgmin), as compared with the control group to which vehicle was administered. Therefore, it may be seen that the mice in which PPAR δ was activated during the fetal programming period had increased slow muscle fiber generation and thus increased the lipometabolism."}, "[4]": {"system": "leptin receptor-deficient mouse (db/db)", "test": "Glucose tolerance test in type II diabetes mouse model after fetal reprogramming", "type": "in vivo", "settings": "homo type male db/db fetuses; mother dosed only during lactation", "protocol": "The present researchers have checked the fetal reprogramming effect of PPAR δ by using a leptin receptor-deficient mouse (db/db). After hetero type female and male mice were bred, the PPAR δ agonist (CMDD1111) was administered to the female mice only during the lactation period. The glucose tolerance test (GTT) was conducted using only homo type male fetuses having induced diabetes through gene analysis and blood glucose analysis."}, "[5]": {"system": "gene expression in gastrocnemius muscle", "test": "Gene expression analysis using microarray", "type": "in vivo, mice", "text": "As for an animal, the gastrocnemius muscle of 3-week old mice fetal-reprogrammed by PPAR δ agonist (CMDD1111) was resected, and then total RNA was extracted by using the Trizol reagent (Gibco). The isolated RNA was subjected to quantitative and purity verification processes, and then used for gene expression analysis using a Mouse 430 2.0 (Affimatrix) chip."}, "[6]": {"settings": "microarray, gastrocnemius muscle, 3-week old mice"}},
  "data": [
    {"smiles": "Cc1cc(SC(Cc2ccccc2)c2sc(-c3ccc(C(F)(F)F)cc3)nc2C)ccc1OCC(=O)O", "note": "(stereo not shown) [CMDD1111]", "values": [
      {"measurement": "fasting blood glucose level versus control", "setting": "[1]", "value": "lower"},
      {"measurement": "glucose clearance time versus control", "setting": "[1]", "value": "shorter"},
      {"measurement": "maximum blood glucose concentration versus control", "setting": "[1]", "value": "lower"},
      {"measurement": "growth inhibition or promotion (growth rate of fetus)", "setting": "[2]; 3 weeks", "value": "not observed"},
      {"measurement": "deformity in skeleton staining", "setting": "[2]; Alizaren red S and Alician blue dye", "value": "not observed"},
      {"measurement": "body weight versus vehicle group", "setting": "[2]; as adults", "value": "no difference"},
      {"measurement": "side effects due to the administered material", "setting": "[2]; gestation period, 10 mg/kg oral once per day", "value": "not observed"},
      {"measurement": "weight of fetus group", "setting": "[2]; immediately after birth, mother 10 mg/kg during gestation", "value": "1.37 ± 0.09", "unit": "g"},
      {"measurement": "carbohydrate oxidation", "setting": "[3]; calculated from RER and VO2", "value": 38, "unit": "mg/kgmin"},
      {"measurement": "less carbohydrate used versus vehicle control", "setting": "[3]; calculated from RER and VO2", "value": 20, "unit": "%"},
      {"measurement": "lipid oxidation", "setting": "[3]; calculated from RER and VO2", "value": 9.5, "unit": "mg/kgmin"},
      {"measurement": "more lipid used versus vehicle control", "setting": "[3]; calculated from RER and VO2", "value": 44, "unit": "%"},
      {"measurement": "average AUL value of RER", "setting": "[3]; mouse group subjected to fetal reprogramming", "value": "102.2±2.8"},
      {"measurement": "glucose tolerance (GTT)", "setting": "[4]", "value": "improved"},
      {"measurement": "expressions of genes commonly expressed in the heart muscle (RYR2, ATP2A2, PLN)", "setting": "[5]; fetal-reprogrammed mouse group", "value": "remarkably increased"},
      {"measurement": "expression of ATPase, Ca2+ transporting (SERCA)", "setting": "[5]; [6]", "value": 1.4, "unit": "fold"},
      {"measurement": "expression of CamIIb", "setting": "[5]; [6]", "value": 1.4, "unit": "fold"},
      {"measurement": "expression of CamIId", "setting": "[5]; [6]", "value": 1.8, "unit": "fold"},
      {"measurement": "expression of HDAC4 (decrease)", "setting": "[5]; [6]", "value": "−1.5", "unit": "fold"},
      {"measurement": "expression of Mef2a", "setting": "[5]; [6]", "value": 1.4, "unit": "fold"},
      {"measurement": "expression of PPARγ coactivator 1a", "setting": "[5]; [6]", "value": 1.7, "unit": "folds"},
      {"measurement": "expression of Troponin I", "setting": "[5]; [6]", "value": 3.2, "unit": "fold"},
      {"measurement": "expression of Troponin T2", "setting": "[5]; [6]", "value": 2.3, "unit": "fold"},
      {"measurement": "expression of acyl CoA dehydrogenase (ACAD)", "setting": "[5]; [6]", "value": 1.7, "unit": "fold"},
      {"measurement": "expression of acyl CoA synthetase (ACSL)", "setting": "[5]; [6]", "value": 1.5, "unit": "fold"},
      {"measurement": "expression of carnitine palmitoyl transferase 1a (CPT-1a)", "setting": "[5]; [6]", "value": 1.4, "unit": "fold"},
      {"measurement": "expression of cytochrome 8a (COX8A)", "setting": "[5]; [6]", "value": 1.7, "unit": "fold"},
      {"measurement": "expression of myosin binding protein C3 (MYBPC3)", "setting": "[5]; [6]", "value": 2.8, "unit": "fold"},
      {"measurement": "expression of myosin heavy chain 6 (Myh6)", "setting": "[5]; [6]", "value": 2.7, "unit": "fold"},
      {"measurement": "expression of myosin light chain 7 (Myl7)", "setting": "[5]; [6]", "value": 2.9, "unit": "fold"},
      {"measurement": "expression of pantothenate kinase 1 (PANK1)", "setting": "[5]; [6]", "value": 2.4, "unit": "fold"},
      {"measurement": "expression of phospholamban (PLN)", "setting": "[5]; [6]", "value": 2.8, "unit": "fold"},
      {"measurement": "expression of ryanodine receptor 2 (RYR2)", "setting": "[5]; [6]", "value": 2.8, "unit": "fold"},
      {"measurement": "expression of ryanodine receptor 3 (RYR3)", "setting": "[5]; [6]", "value": 2.0, "unit": "fold"},
      {"measurement": "expression of ubiquinone", "setting": "[5]; [6]", "value": 2.0, "unit": "fold"},
      {"measurement": "expression of uncoupling protein 2 (UCP2)", "setting": "[5]; [6]", "value": 1.5, "unit": "fold"},
      {"measurement": "expression of uncoupling protein 3 (UCP3)", "setting": "[5]; [6]", "value": 2.3, "unit": "fold"}
    ]}
  ]
}
